# Test results published in the METLIN SMRT retention time set (Domingo-Almenara et al. 2019).
# Assay: gradient 5% acetonitrile 3 min, to 50% in 2 min, to 85% in 15 min, held 3 min, 100 µL/min
# Settings: column: Zorbax Extend-C18 2.1 x 50 mm; eluents: water / acetonitrile, 0.1% formic acid
# Procedure, shortened: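 The system's dead and dwell volumes were 40 μL and 900 μL, with a Zorbax Extend-C18 column (2.1 × 50 mm, 1.8 μm) run at 100 μL/min in water and acetonitrile containing 0.1% formic acid each. Pure standards were analyzed in mixtures of ~100 molecules by HPLC–quadrupole time-of-flight mass spectrometry in positive and negative ionization mode. Retention time was assigned from computationally picked, manually inspected adduct peaks.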
row,Compound,RP-LC retention time [s]
1,CCC(C)N(CCNC(=O)Cn1c(=O)oc2ccccc21)Cc1cccs1 (stereo not given),652
2,COc1cccc(CN2CCC(N3C(=O)C4(CCCCC4)C3c3ccncc3)CC2)c1OC (stereo not given),601
3,CCCS(=O)(=O)N1CCc2ccc(NC(=O)Nc3cc(Cl)ccc3OC)cc2C1,995
4,CCCN(CCC)C(=O)Cn1c(CN(C)C(C)=O)nc2ccccc21,630
5,Cc1cc(Cl)ccc1OCc1nc(-c2ccc3c(c2)ncn3CCC(=O)N2CCCCC2)no1,956
6,Cc1noc(C)c1CCC(=O)N1CCCCC1c1nncn1CC1CC1 (stereo not given),655
7,O=C1NCCCn2cc(S(=O)(=O)N(Cc3ccccc3)c3ccccc3)cc21,808
8,Cc1noc2nc(C)n(CC(=O)Nc3cccc4c3CCCC4)c(=O)c12,871
9,CCCNC(=O)C1CCCN(c2nc3ncn(CC(=O)NCc4ccc(OC)cc4)c(=O)c3s2)C1 (stereo not given),680
10,COc1ccc(-c2nc(C3CC(=O)N(c4ccc(C)cc4)C3)no2)c(C)c1 (stereo not given),1090
11,COc1ccc(OCc2nc(-c3ccc4c(c3)oc(=O)n4C(C)C)no2)cc1,1110
12,O=C(c1ccn[nH]1)N1CCCC(Cn2c(C3CC3)nc3cccnc32)C1 (stereo not given),578
13,CSc1cccc(NC(=O)Cn2c(=O)n(-c3ccc(C)cc3)c(=O)c3c2cc(C)n3C)c1,910
14,c1ccc(CCc2nc3nccc(-c4ccc5c(c4)OCCCO5)n3n2)cc1,984
15,C=CCNC(=O)c1cn(-c2cc(-c3nc(CC)no3)ccn2)cn1,646
16,Cc1ccc(CN2CC3(CCCCC3)CC2COc2ccncc2)nc1 (stereo not given),615
17,Cc1ccccc1Cn1cc(-c2ccncc2)cc1C(=O)N1CCN(C2CCCCC2)CC1,586
18,COC(=O)c1cnc2nc(C)ccc2c1Nc1ccc(Cl)cc1,705
19,CN(C(=O)Cc1ccccc1)[C@H](CN1CCCC1)c1ccccc1,726
20,Cc1ccc(S(=O)(=O)N2CCCN(c3ccc(=O)n(-c4ccccc4)n3)CC2)cc1,835
21,CCOCCCNC(=O)C1CCN(c2cc(Sc3cc(C)ccc3C)ncn2)CC1,775
22,Cc1nn2c(CNC(=O)c3ccccc3C(F)(F)F)c(C)nc2s1,638
23,Cc1noc(CNC(=O)C2CCN(C(=O)C(C)(C)Oc3ccc(Cl)cc3)CC2)n1,772

row,Compound,RP-LC retention time [s]
1,CCN(CC)S(=O)(=O)c1ccc2c(c1)cc(C(=O)NCCC(C)N1CCCC1)n2C (stereo not given),658
2,O=C(NCCC1=CCCCC1)C1CCN(c2cnc3nccnc3c2)CC1,737
3,O=C(c1ccsc1)N1CCN(c2cc(-c3cccnc3)[nH]n2)CC1,584
4,COc1ccc(C(=O)N2CCc3nc(CNC(=O)C4CCC4)n(C)c3C2)cn1,585
5,COc1ccccc1CNC(=O)c1cn2cc(C)ccc2n1,681
6,CCC1(C(=O)Nc2ccc(OC)c(F)c2)CCCCC(=O)N1 (stereo not given),720
7,CC(=O)NCCc1csc(C2CCN(C(=O)C3CCCC3)CC2)n1,676
8,CCC(CO)Nc1ncc([N+](=O)[O-])c(N)n1 (stereo not given),570
9,O=C1/C(=C/c2ccccc2)C[C@@]2(O)[C@H]3Cc4ccc(O)c5c4[C@@]2(CCN3CC2CC2)[C@H]1O5,724
10,CC1CCN(C(=O)c2nc3ccccn3c2-c2ccsc2)CC1,711
11,COc1ccc(Cl)cc1S(=O)(=O)N1CCc2nn(C)c(=O)n2CC1,712
12,Cc1ccc(F)cc1NS(=O)(=O)c1cc2n(c1)CCCNC2=O,671
13,CCN1C(=O)c2c(C(=O)NCc3ccc(C)cc3)ncn2CC1(C)C(=O)NC1CCCC1 (stereo not given),783
14,COc1cccc(CNC(=O)N2CCc3nc(-c4ccccc4)sc3C2)c1,891
15,CN1C(=O)CS(=O)(=O)C12CCN(C(=O)c1ccc3c(c1)OCO3)CC2,628
16,Cc1cccn2c(Nc3ccccc3)c(-c3ccc(N4CCOCC4)cc3)nc12,684
17,CC(C)NC(=O)CSc1nnc(CNC(=O)c2ccc(S(=O)(=O)N(C)C)cc2)o1,625
18,Cc1ccc(C(=O)N2C[C@@H]3C[C@H]2C[C@@H]3NS(=O)(=O)c2cccnc2)cc1F,716
19,COc1cccc(NC(=O)Cn2cnc3c(sc4nc(-c5ccccc5)ccc43)c2=O)c1,982
20,COC(=O)c1ccc(C(=O)NCCN2CCN(C(=O)OC(C)(C)C)CC2)cc1,580
21,CCN1CCCn2cc(S(=O)(=O)Nc3cccc(Cl)c3)cc2C1=O,770
22,CCc1ccc(-c2cc(C(N)=O)[nH]n2)cc1,708
23,COc1ccc2sc(OC3CCN(C(=O)NC(C)C)CC3)nc2c1,819

row,Compound,RP-LC retention time [s]
1,COC(=O)C1=CN(C2CC2)c2cc(N3CCN(c4ccccn4)CC3)c(F)cc2S1(=O)=O,637
2,COc1ccc(Cl)cc1NS(=O)(=O)c1cc2c(s1)CCN(C(=O)C1CC1)C2,883
3,CCC(=O)N1CCCC1c1nc(CCOCC2CCCC2)no1 (stereo not given),837
4,Cc1ccc(C)c(-n2ccn(Cc3nc(-c4ccccc4C)no3)c(=O)c2=O)c1,953
5,Cc1ccc(CNC(=O)NCCC2CCN(S(=O)(=O)c3ccc(F)cc3)CC2)cc1,896
6,COc1ccc(NC(=O)C2CC(=O)N(c3ccc4c(c3)CCN4C(C)=O)C2)c(OC)c1 (stereo not given),675
7,O=C(NC1CC1)c1snc(-c2ccccn2)c1NC(=O)C1CC1,720
8,CCCN1CCN(C(=O)c2nc3ccccn3c2-c2ccsc2)CC1,576
9,CC(NC(=O)c1ccco1)c1nc2ccccc2n1CC(=O)N(C)c1ccccc1 (stereo not given),694
10,Cc1ccc(NS(=O)(=O)c2cc(-c3[nH]ncc3C(=O)N3CCOCC3)oc2C)cc1,695
11,CSc1ccc(NC(=O)N2CCN(c3cnn4c(C5CC5)nnc4c3)CC2)cc1,668
12,COCC(=O)NC1CCC12CCN(C(=O)CCC1CCCC1)CC2 (stereo not given),735
13,CCN1CCN(C(=O)Cn2cccc2-c2nnc(-c3ccccc3)o2)CC1,636
14,O=C(NCCc1ccccc1)C1CCCN(c2ncnc3c2nc2n3CCCCC2)C1 (stereo not given),758
15,CCCNC(=O)Cc1c(C)nn(-c2nc(-c3ccc(C)cc3)cs2)c1C,1070
16,c1ccc(OCCC2CCN(Cc3ccc4[nH]ccc4c3)C2)cc1 (stereo not given),726
17,Cc1cc(C)cc(N2C(=O)N(CC(=O)N3CCOc4ccc(C)cc43)C3CS(=O)(=O)CC32)c1 (stereo not given),962
18,Cc1noc(C)c1-c1ccc(S(=O)(=O)Nc2ccc(C(F)(F)F)cc2)cc1,1020
19,COc1ccccc1CN1C[C@@H]2C(=O)N(CCCN3CCCC3=O)C(=O)[C@@H]2C1,586
20,NCCNc1ccc(NCCN)c2c1C(=O)c1ccncc1C2=O,564
21,CCOC(=O)Cn1cccc(S(=O)(=O)N2CCCCCC2)c1=O,831
22,O=C(Nc1ccc(Nc2ccncc2)cc1)c1ccc(Nc2ccnc3ccc([N+](=O)[O-])cc23)cc1[N+](=O)[O-],651
23,COc1ccc(N2CCN(S(=O)(=O)N(C)C)CC2)cc1,736

row,Compound,RP-LC retention time [s]
1,O=C(CN1C(=O)NC2(CCCCC2)C1=O)Nc1ccccc1,722
2,Cc1noc(CNC(=O)c2n[nH]c3ccccc23)n1,626
3,CC(NC(=O)c1ccco1)c1nc(-c2ccc(N3CCCCC3)cc2)no1 (stereo not given),859
4,CN1CCN(c2cccc(Nc3nc4c(-c5ccc(S(C)(=O)=O)cc5)cccn4n3)c2)CC1,675
5,CC(C)c1nc(C2CN(C(=O)Nc3ccc(F)cc3)C2)n(C)n1,672
6,CC(=O)N1c2ccc(S(=O)(=O)N3CCC(C(=O)NC(C)c4ccccc4)CC3)cc2CC1C (stereo not given),733
7,COc1ccc(N2CC(c3noc(-c4cccc(N(C)C)c4)n3)CC2=O)cc1 (stereo not given),983
8,CCOC(=O)c1nc(Nc2cc(Cl)ccc2C)c2ccccc2n1,929
9,Cc1ccc2nc(C(=O)NCCN(C)C3CCCCC3)cn2c1,564
10,COc1ccc(-c2nc3cnccn3c2Nc2cccc(C(N)=O)c2)cc1,612
11,CCOC(=O)CSCC(=O)Nc1nnc(-c2cccc([N+](=O)[O-])c2)s1,764
12,COc1cccc(NC(=O)C2CCN(S(=O)(=O)c3c(C)nn(-c4ccccc4)c3C)CC2)c1,940
13,c1ccc(-c2nc(C3CC3)no2)c(OC2CCNC2)c1 (stereo not given),588
14,CCCNS(=O)(=O)c1ccc(-c2c(C)noc2C)cc1,835
15,CCNC(=O)N1CCCC(c2cccc(C(=O)NCc3ccccc3C(F)(F)F)c2)C1 (stereo not given),905
16,Cc1nc(-c2csc(S(=O)(=O)N3CCCC(C(=O)Nc4ccccc4)C3)c2)no1 (stereo not given),927
17,COc1ccc(C2=C(C)C(Nc3ccccc3OC)=NS2(=O)=O)cc1,925
18,CCn1c(=O)c(N2CCN(C(=O)Nc3cc(F)ccc3F)CC2)nc2ccccc21,997
19,Cc1c(C(=O)NCc2c(F)cccc2F)c(C(F)(F)F)nn1C(C)C,867
20,O=C(NCC1CCOCC1)c1cccc(Br)c1,733
21,O=C1NC2(CCN(C(=O)Nc3cccc(C(F)(F)F)c3)CC2)N=C1c1ccccc1,902
